Data: PubChem BioAssay (NCI)
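Step 1: Grow cells in 96-well plates. Step 2: Expose to compound for 48 hours at 5 concentrations. Step 3: Interpolate endpoints linearly; if unreached, use highest concentration. TGI is the concentration that stops growth completely.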

How the values were obtained:
Experiment in all cases: inhibition of tumour cell growth, NCI panel, 48 h
[1] = system: COLO 205 colon
[2] = system: RPMI-8226 leukemia
[3] = system: TK-10 renal
[4] = system: HS 578T breast
[5] = system: SK-MEL-5 melanoma
[6] = system: U251 CNS
[7] = system: M14 melanoma
[8] = system: SF-295 CNS
[9] = system: EKVX NSCLC
[10] = system: SF-268 CNS
[11] = system: SNB-19 CNS
[12] = system: UACC-62 melanoma
[13] = system: SNB-75 CNS
[14] = system: SF-539 CNS
[15] = system: HL-60(TB) leukemia
[16] = system: SN12C renal
[17] = system: NCI-H226 lung
[18] = system: RXF 393 renal
[19] = system: HCT-116 colon

SMILES	TGI [1] [µM]	TGI [2] [µM]	TGI [3] [µM]	TGI [4] [µM]	TGI [5] [µM]	TGI [6] [µM]	TGI [7] [µM]	TGI [8] [µM]	TGI [9] [µM]	TGI [10] [µM]	TGI [11] [µM]	TGI [12] [µM]	TGI [13] [µM]	TGI [14] [µM]	TGI [15] [µM]	TGI [16] [µM]	TGI [17] [µM]	TGI [18] [µM]	TGI [19] [µM]
Cc1cnc(/N=c2\sc(C)cn2-c2ncc(C)s2)s1	> 100	> 100	> 100	> 100	> 100	> 100	> 100	> 100	> 100	> 100	> 100	> 100	> 100	> 100	> 100	> 100	> 100	> 100	> 100
CC1=C(O)C(=O)C[C@]2(C)[C@H]3CC=C4[C@@H]5CC(C)(C)CC[C@@H]5C(=O)[C@H](O)[C@@]4(C)[C@]3(C)CC[C@@H]12	> 50	> 50	> 50	> 50	> 50	> 50	> 50	> 50	> 50	> 50	> 50	> 50	> 50	> 50	> 50	> 50	> 50	37.9	> 50
COc1ccc(C(=O)/C=C/c2ccc(OCCSCCCCCCCCCCSCCOc3ccc(/C=C/C(=O)c4ccc(OC)cc4)cc3)cc2)cc1	> 100	> 100	> 100	> 100	> 100	> 100	> 100	> 100	> 100	> 100	> 100	> 100	> 100	> 100	> 100	> 100	> 100	> 100	> 100
CSc1nc(-c2ccc(C)cc2)c(C#N)c(=O)[nH]1	> 100	> 100	> 100	> 100	> 100	> 100	> 100	> 100	> 100	> 100	> 100	> 100	> 100	> 100	> 100	> 100	> 100	> 100	> 100
Cc1nc2ccc(F)cc2c2c1CCO2	> 100	> 100	> 100	> 100	> 100	> 100	> 100	> 100	> 100	> 100	> 100	> 100	> 100	> 100	55.2	> 100	> 100	> 100	> 100
Cc1cc(C)nc(NC(=S)Nc2ccccc2Cl)c1	> 100	> 100	> 100	> 100	> 100	> 100	> 100	> 100	> 100	> 100	> 100	> 100	> 100	> 100	> 100	> 100	> 100	> 100	> 100
